Data taken from patent US20250320184A1 (SIRONAX LTD., priority 2022, published 2025).
pIC50: −log10 of the molar value.

Each compound was assayed against T1, SARM1 (50-724) (Homo sapiens, UniProt Q6SZW1) (assay: biochemical).
T1 sequence (Q6SZW1 50-724): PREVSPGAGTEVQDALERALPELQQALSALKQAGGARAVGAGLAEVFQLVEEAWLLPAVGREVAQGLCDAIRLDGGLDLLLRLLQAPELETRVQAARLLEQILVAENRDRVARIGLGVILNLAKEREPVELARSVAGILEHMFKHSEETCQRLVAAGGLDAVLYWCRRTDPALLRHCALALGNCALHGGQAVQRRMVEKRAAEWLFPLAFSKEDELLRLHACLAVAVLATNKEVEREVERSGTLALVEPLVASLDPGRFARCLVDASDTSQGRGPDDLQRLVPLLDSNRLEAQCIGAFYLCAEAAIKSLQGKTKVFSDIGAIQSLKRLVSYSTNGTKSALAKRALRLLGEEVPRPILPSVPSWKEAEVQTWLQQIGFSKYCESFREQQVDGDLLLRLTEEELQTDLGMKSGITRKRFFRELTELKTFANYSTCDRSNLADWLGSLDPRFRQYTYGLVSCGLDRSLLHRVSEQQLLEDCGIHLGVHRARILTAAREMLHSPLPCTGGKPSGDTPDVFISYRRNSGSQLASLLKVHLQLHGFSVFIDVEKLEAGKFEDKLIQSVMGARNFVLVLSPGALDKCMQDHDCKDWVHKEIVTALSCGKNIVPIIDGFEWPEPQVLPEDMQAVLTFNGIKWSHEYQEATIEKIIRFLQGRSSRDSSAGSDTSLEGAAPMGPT
Protocol: An enzymatic assay was performed in a 384-well plate using Dulbecco's phosphate-buffered saline (PBS) as the reaction buffer. […] The reaction was initiated by adding a mixture of 200 μM nicotinamide mononucleotide (NMN) as activator and 100 μM NAD^+ as substrate. After 1 h of incubation at room temperature, the reaction was terminated with 10 times volume of 70% acetonitrile, then centrifuged at 3800 rpm for 10 min.

| pIC50 | Structure (SMILES) |
| --- | --- |
| > 7.00 | CC1(C)C(=O)N(CC(=O)O)c2cc(NS(=O)(=O)c3cccc(Cl)c3Cl)ccc21 [Compound 241, 2-[6-[(2,3-dichlorophenyl)sulfonylamino]-3,3-dimethyl-2-oxo-indolin-1-yl]acetic Acid] |
| > 7.00 | CC1(C)CN(C(N)=O)c2cc(NS(=O)(=O)c3cccc(Cl)c3Cl)ccc21 [Compound 242, 6-((2,3-dichlorophenyl)sulfonamido)-3,3-dimethylindoline-1-carboxamide] |
| > 7.00 | CC1(C)CN(C(=O)C2CC2)c2cc(NS(=O)(=O)c3cccc(Cl)c3Cl)ccc21 [Compound 243, 2,3-dichloro-N-(1-(cyclopropanecarbonyl)-3,3-dimethylindolin-6-yl)benzenesulfonamide] |
| > 7.00 | O=S(=O)(Nc1ccc(Cc2cncs2)cc1)c1cccc(Cl)c1Cl [Compound 251, 2,3-dichloro-N-(4-(thiazol-5-ylmethyl)phenyl)benzenesulfonamide] |
| > 7.00 | CC1(C)C(=O)N(CC(N)=O)c2cc(NS(=O)(=O)c3cccc(Cl)c3Cl)ccc21 [Compound 255, 2-[6-[(2,3-dichlorophenyl)sulfonylamino]-3,3-dimethyl-2-oxo-indolin-1-yl]acetamide] |
| > 7.00 | CC1(C)CC(=O)c2cc(NS(=O)(=O)c3cccc(Cl)c3Cl)ccc21 [Compound 264, 2,3-dichloro-N-(1,1-dimethyl-3-oxo-2,3-dihydro-1H-inden-5-yl)benzenesulfonamide] |
| > 7.00 | CC1(C)CNC(=O)c2cc(NS(=O)(=O)c3cccc(Cl)c3Cl)ccc21 [Compound 265, 2,3-dichloro-N-(4,4-dimethyl-1-oxo-1,2,3,4-tetrahydroisoquinolin-7-yl)benzenesulfonamide] |
| 6.30 to 7.00 | CC1(C)Cc2ccc(NS(=O)(=O)c3cccc(Cl)c3Cl)cc2NC1=O [Compound 268, 2,3-dichloro-N-(3,3-dimethyl-2-oxo-1,4-dihydroquinolin-7-yl)benzenesulfonamide] |
| > 7.00 | CC1(C)C(=O)N(CCCO)c2cc(NS(=O)(=O)c3cccc(Cl)c3Cl)ccc21 [Compound 273] |
| > 7.00 | CC1(C)C(=O)N(CCC(N)=O)c2cc(NS(=O)(=O)c3cccc(Cl)c3Cl)ccc21 [Compound 279, 3-(6-((2,3-dichlorophenyl)sulfonamido)-3,3-dimethyl-2-oxoindolin-1-yl)propanamide] |
| > 7.00 | CC1(C)C(=O)N(CCCC(N)=O)c2cc(NS(=O)(=O)c3cccc(Cl)c3Cl)ccc21 [Compound 280, 4-(6-((2,3-dichlorophenyl)sulfonamido)-3,3-dimethyl-2-oxoindolin-1-yl)butanamide] |
| > 7.00 | CC1(C)CN(C(=O)c2ccccn2)c2cc(NS(=O)(=O)c3cccc(Cl)c3Cl)ccc21 [Compound 281, 2,3-dichloro-N-(3,3-dimethyl-1-picolinoylindolin-6-yl)benzenesulfonamide] |
| > 7.00 | CC1(C)CN(C(=O)C2CCOCC2)c2cc(NS(=O)(=O)c3cccc(Cl)c3Cl)ccc21 [Compound 284, 2,3-dichloro-N-[3,3-dimethyl-1-(tetrahydropyran-4-carbonyl)indolin-6-yl]benzenesulfonamide] |
| > 7.00 | CC1(C)CN(C(=O)c2cccnc2)c2cc(NS(=O)(=O)c3cccc(Cl)c3Cl)ccc21 [Compound 285, 2,3-dichloro-N-(3,3-dimethyl-1-nicotinoylindolin-6-yl)benzenesulfonamide] |
| > 7.00 | CC(Nc1ccc2c(c1)c(N)nn2C)c1nc(Cl)c(Cl)s1 (centres unmarked) [Compound 288, N5-(1-(4,5-dichlorothiazol-2-yl)ethyl)-1-methyl-1H-indazole-3,5-diamine] |
| > 7.00 | CC1(C)c2ccc(NS(=O)(=O)c3cccc(Cl)c3Cl)cc2C(=O)N1CC(N)=O [Compound 289, 2-(5-((2,3-dichlorophenyl)sulfonamido)-1,1-dimethyl-3-oxoisoindolin-2-yl)acetamide] |
| > 7.00 | Cn1ccc(C(=O)N2CC(C)(C)c3ccc(NS(=O)(=O)c4cccc(Cl)c4Cl)cc32)n1 [Compound 295, 2,3-dichloro-N-(3,3-dimethyl-1-(1-methyl-1H-pyrazole-3-carbonyl)indolin-6-yl)benzenesulfonamide] |
